Results as given in PubChem BioAssay AID2060910 (Molecular Pharmacology Branch, DTP, NCI, 2025).

Test system: 242566-281-R-J2-PDC complex spheroid viability
Assay: Anticancer human tumor 242566-281-R-J2-PDC patient-derived pancreatic carcinoma cell line growth inhibition [RAS]
Conditions: for IC50: curve of first compound; for viability, T/C: stronger effect = lower value
Summary of the method: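 Agents were tested in combination matrices in half-log decrements from a top concentration at or near clinical Cmax (10 microM if undetermined). Targets were multi-cell spheroids of tumour lines plus HUVEC and MSC stromal cells.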
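Also: spheroids exposed to compound for 7 days before readout.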
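For viability, T/C in this document: 100% = DMSO vehicle control wells.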

CC(C)NCC(C(=O)N1CCN(c2ncnc3c2C(C)CC3O)CC1)c1ccc(Cl)cc1 (configuration not stated) + CCn1c(-c2cccnc2C(C)OC)c2c3cc(ccc31)N1CCOC(CC(NC(=O)C(C(C)C)N(C)C(=O)C3(F)CCN(C(=O)C#CC(C)(C)N(C)C)CC3)C(=O)N3CCCC(N3)C(=O)OCC(C)(C)C2)C1
IC50 (second compound 0.000949 µM): > 10 µM | IC50 (second compound 0.003 µM): > 10 µM | IC50 (second compound 0.00949 µM): > 10 µM | IC50 (second compound 0.03 µM): > 10 µM | IC50 (second compound 0.0949 µM): > 10 µM | IC50 (second compound 0.3 µM): > 10 µM | viability, T/C (second compound 0.000949 µM, first compound 0.0316 µM): 92% | viability, T/C (second compound 0.000949 µM, first compound 0.1 µM): 98.4% | viability, T/C (second compound 0.000949 µM, first compound 0.316 µM): 84.9% | viability, T/C (second compound 0.000949 µM, first compound 1 µM): 92.2% | viability, T/C (second compound 0.000949 µM, first compound 3.16 µM): 96.8% | viability, T/C (second compound 0.000949 µM, first compound 10 µM): 56.7% | viability, T/C (second compound 0.003 µM, first compound 0.0316 µM): 111% | viability, T/C (second compound 0.003 µM, first compound 0.1 µM): 73.6% | viability, T/C (second compound 0.003 µM, first compound 0.316 µM): 95.2% | viability, T/C (second compound 0.003 µM, first compound 1 µM): 81.6% | viability, T/C (second compound 0.003 µM, first compound 3.16 µM): 84.9% | viability, T/C (second compound 0.003 µM, first compound 10 µM): 55.5% | viability, T/C (second compound 0.00949 µM, first compound 0.0316 µM): 109% | viability, T/C (second compound 0.00949 µM, first compound 0.1 µM): 70.8% | viability, T/C (second compound 0.00949 µM, first compound 0.316 µM): 97.5% | viability, T/C (second compound 0.00949 µM, first compound 1 µM): 79.2% | viability, T/C (second compound 0.00949 µM, first compound 3.16 µM): 74.1% | viability, T/C (second compound 0.00949 µM, first compound 10 µM): 56.4% | viability, T/C (second compound 0.03 µM, first compound 0.0316 µM): 96% | viability, T/C (second compound 0.03 µM, first compound 0.1 µM): 91.2% | viability, T/C (second compound 0.03 µM, first compound 0.316 µM): 93.6% | viability, T/C (second compound 0.03 µM, first compound 1 µM): 79.2% | viability, T/C (second compound 0.03 µM, first compound 3.16 µM): 69.8% | viability, T/C (second compound 0.03 µM, first compound 10 µM): 72.7% | viability, T/C (second compound 0.0949 µM, first compound 0.0316 µM): 88.9% | viability, T/C (second compound 0.0949 µM, first compound 0.1 µM): 87.5% | viability, T/C (second compound 0.0949 µM, first compound 0.316 µM): 104% | viability, T/C (second compound 0.0949 µM, first compound 1 µM): 97.7% | viability, T/C (second compound 0.0949 µM, first compound 3.16 µM): 65.9% | viability, T/C (second compound 0.0949 µM, first compound 10 µM): 59.9% | viability, T/C (second compound 0.3 µM, first compound 0.0316 µM): 85.8% | viability, T/C (second compound 0.3 µM, first compound 0.1 µM): 88.7% | viability, T/C (second compound 0.3 µM, first compound 0.316 µM): 85.4% | viability, T/C (second compound 0.3 µM, first compound 1 µM): 74% | viability, T/C (second compound 0.3 µM, first compound 3.16 µM): 62.3% | viability, T/C (second compound 0.3 µM, first compound 10 µM): 52.3%
